Converted amounts (≈) assume the structure as drawn. Where two headings read alike, the source gives them in different places.
Assays:
[1] = Equilibrium solubility of PA-824 in FaSSIF containing 2% DMSO; assay type: physicochemical; conditions: thermodynamic from solid, 25° C.
[2] = Supersaturated solubility measurement in FaSSIF with 2% DMSO; assay type: physicochemical; conditions: for solubility kinetic at 16 min: read-out: Measured conc.(μg/mL)
Procedure: Then 20 μL of each DMSO stock solution was added to FaSSIF at 1:49 to make the final DMSO concentration at 2% v/v. The samples were stirred at room temperature for 16 min, centrifuged and supernatants analyzed by HPLC.

[3] = assay type: physicochemical
Procedure: 10 mL of SGF was added into 8 vials containing each ASD prepared by vacuum drying as described above, then the suspensions were shaken using a thermomixer at 37° C. under 100 rpm, 300 μL of suspensions were withdrawn at 1 h and the pH values were recorded. After that, 10 mL of FaSSIF was added into the suspensions containing SGF, 300 μL of suspensions were withdrawn at 1 h and 3 h, the pH values in 3 h were also recorded. The samples of suspensions were centrifuged in 96-well plates at 3000 rpm for 2 min. The supernatants were diluted with the diluent (ACN/water, 50/50) and analyzed by HPLC. […]

[4] = Kinetic solubility of nanospray-dried ASDs in FaSSIF at 37° C.; assay type: physicochemical; conditions: thermodynamic from solid
Procedure: (§1) 10 mL of FASSIF was added into 8 vials containing each ASD prepared before by nanospray drying, respectively, then the suspensions were shaken using a thermomixer at 37° C. under 100 rpm, 300 μL of suspensions were withdrawn at 15, 30, 45, 60, 90, 120 and 180 mins. The samples of suspensions were centrifuged in 96-well plates at 3000 rpm for 5 min. The supernatants were diluted with the diluent (ACN/water, 50/50) and analyzed by HPLC.

[5] = Kinetic solubility of Soluplus ASDs with different drug loadings in FaSSIF at 37° C.; assay type: physicochemical; conditions: thermodynamic from solid, Table 8, FaSSIF
Procedure: as §1, with “of FaSSIF” for “of FASSIF”, “into 3” for “into 8”, “ASD (equivalent to 5 mg API)” for “ASD”, “prepared” for “prepared before”, “centrifuged” for “centrifuged in 96-well plates”, “(ACN/water, 75/25)” for “(ACN/water, 50/50)”

[6] = Kinetic solubility of HME ASDs in FaSSIF at 37° C.; assay type: physicochemical; conditions: thermodynamic from solid; for solubility at 15 min: read-out: Solubility (μg/mL) 15 min; for solubility at 30 min: read-out: Solubility (μg/mL) 30 min; for solubility at 60 min: read-out: Solubility (μg/mL) 60 min; for solubility at 90 min: read-out: Solubility (μg/mL) 90 min; for solubility at 120 min: read-out: Solubility (μg/mL) 120 min; for solubility at 180 min: read-out: Solubility (μg/mL) 180 min
Procedure: (§2) 10 mL of FaSSIF was added into 4 vials containing each ASD (equivalent to 5mg API) prepared by Hot melt extrusion, respectively, then the suspensions were shaken using a thermomixer at 37° C. under 100 rpm, 300 μL of suspensions were withdrawn at 15, 30, 45, 60, 90, 120 and 180 mins. The samples of suspensions were centrifuged at 14000 rpm for 10 min. The supernatants were diluted with the diluent (ACN/water, 50/50) and analyzed by UPLC.
The milled ASD products were sieved with 60 mesh sieve, and kinetic solubility test was performed with sieved ASD products as well (Table 14).

[7] = Kinetic solubility of nano suspension after lyophilization in FaSSIF at 37° C.; assay type: physicochemical; conditions: thermodynamic from solid, Table 20, FaSSIF
Procedure: as §2, with “into 2” for “into 4”, “containing 2 batches of nano suspension after Lyophilization” for “containing each ASD”, “to 2 mg API),” for “to 5mg API) prepared by Hot melt extrusion, respectively,”, “C. and” for “C. under”

[8] = Induction time of crystallization of PA-824 in presence of HPMCAS; assay type: physicochemical
[9] = Amorphous solubility of PA-824; assay type: physicochemical
[10] = tested on: Gram-positive and Gram-negative bacteria; conditions: cited from earlier work
cytochrome P450 = conditions: cited from earlier work
[11] = 15 min, read-out: Solubility (μg/mL) 15 min
[12] = 30 min, read-out: Solubility (μg/mL) 30 min
[13] = 45 min, read-out: Solubility (μg/mL) 45 min
[14] = 60 min, read-out: Solubility (μg/mL) 60 min
[15] = 90 min, read-out: Solubility (μg/mL) 90 min
[16] = 180 min, read-out: Solubility (μg/mL) 180 min

## O=[N+]([O-])c1cn2c(n1)OC[C@@H](OCc1ccc(OC(F)(F)F)cc1)C2 [PA-824, (6S)-2-nitro-6-{[4-(trifluoromethoxy)benzyl]oxy}-6,7-dihydro-5H-imidazo[2,1-b][1,3]oxazine]
[1]
  solubility thermodynamic at 18 h: 51.4 µg/mL (≈ 143 µM)
[2]; fassif, kinetic from dmso stock
  solubility at 16 min: 53.3 µg/mL (≈ 148 µM)
[2]; fassif, kinetic from dmso stock, target conc. 205.60 μg/mL
  solubility kinetic at 16 min: 30.8 µg/mL (≈ 85.8 µM)
[2]; fassif, kinetic from dmso stock, target conc. 514.00 μg/mL
  solubility kinetic at 16 min: 29.5 µg/mL (≈ 82.1 µM)
[2]; fassif, kinetic from dmso stock, target conc. 616.80 μg/mL
  solubility kinetic at 16 min: 28.7 µg/mL (≈ 79.9 µM)
[2]; fassif, kinetic from dmso stock, target conc. 771.00 μg/mL
  solubility kinetic at 16 min: 30.3 µg/mL (≈ 84.4 µM)
[2]; target conc. 51.40 μg/mL
  Measured conc.(μg/mL): 53.08 µg/mL
[2]; target conc. 102.80 μg/mL
  Measured conc.(μg/mL): 53.27 µg/mL
[2]; target conc. 411.20 μg/mL
  Measured conc.(μg/mL): 32.98 µg/mL
[2]; target conc. 1028.00 μg/mL
  Measured conc.(μg/mL): 30.32 µg/mL
[3]; 1 h
  FaSSIF Conc. (μg/mL) (1 hr): 23.95 µg/mL
  SGF Conc. (μg/mL) (1 hr): 12.46 µg/mL
[3]; 3 h
  FaSSIF Conc. (μg/mL) (3 hr): 24.89 µg/mL
[4]; [11]
  solubility at 15 min: 22.1 µg/mL (≈ 61.7 µM)
[4]; [12]
  solubility at 30 min: 23.7 µg/mL (≈ 65.9 µM)
[4]; [13]
  solubility at 45 min: 26.1 µg/mL (≈ 72.5 µM)
[4]; [14]
  solubility at 60 min: 26.3 µg/mL (≈ 73.3 µM)
[4]; [15]
  solubility at 90 min: 23.6 µg/mL (≈ 65.8 µM)
[4]; [16]
  solubility at 180 min: 24.4 µg/mL (≈ 68 µM)
[5]; [11]
  solubility at 15 min: 22.1 µg/mL (≈ 61.7 µM)
[5]; [12]
  solubility at 30 min: 23.7 µg/mL (≈ 65.9 µM)
[5]; [13]
  solubility at 45 min: 26.1 µg/mL (≈ 72.5 µM)
[5]; [14]
  solubility at 60 min: 26.3 µg/mL (≈ 73.3 µM)
[5]; [15]
  solubility at 90 min: 23.6 µg/mL (≈ 65.8 µM)
[5]; [16]
  solubility at 180 min: 24.4 µg/mL (≈ 68 µM)
[6]; after sieving (60 mesh)
  solubility at 15 min: 31.7 µg/mL (≈ 88.3 µM)
  solubility at 30 min: 31.2 µg/mL (≈ 86.9 µM)
  solubility at 60 min: 33.5 µg/mL (≈ 93.3 µM)
  solubility at 90 min: 32.6 µg/mL (≈ 90.9 µM)
  solubility at 120 min: 39.6 µg/mL (≈ 110 µM)
  solubility at 180 min: 31.6 µg/mL (≈ 87.8 µM)
[6]; after sieving (60 mesh), 45 min, read-out: Solubility (μg/mL) 45 min
  solubility at 45 min: 32.8 µg/mL (≈ 91.2 µM)
[6]; without sieving
  solubility at 15 min: 37.2 µg/mL (≈ 103 µM)
  solubility at 30 min: 41.3 µg/mL (≈ 115 µM)
  solubility at 60 min: 46.2 µg/mL (≈ 129 µM)
  solubility at 90 min: 41.3 µg/mL (≈ 115 µM)
  solubility at 120 min: 41.4 µg/mL (≈ 115 µM)
  solubility at 180 min: 40.7 µg/mL (≈ 113 µM)
[7]; [11]
  solubility at 15 min: 31.7 µg/mL (≈ 88.3 µM)
[7]; [12]
  solubility at 30 min: 31.2 µg/mL (≈ 86.9 µM)
[7]; [13]
  solubility at 45 min: 32.8 µg/mL (≈ 91.2 µM)
[7]; [14]
  solubility at 60 min: 33.5 µg/mL (≈ 93.3 µM)
[7]; [15]
  solubility at 90 min: 32.6 µg/mL (≈ 90.9 µM)
[7]; 120 min, read-out: Solubility (μg/mL) 120 min
  solubility at 120 min: 39.6 µg/mL (≈ 110 µM)
[7]; [16]
  solubility at 180 min: 31.6 µg/mL (≈ 87.8 µM)
[8]; 160 ug/mL PA-824, FaSSIF V1
  Induction Time: 0.89 ± 0.26 min
[8]; 160 ug/mL PA-824, FaSSIF V1 + HF (1 mg/mL)
  Induction Time: 77.6 ± 13.6 min
[8]; 160 ug/mL PA-824, PBS pH 6.5
  Induction Time: 1.39 ± 0.18 min
[8]; 160 ug/mL PA-824, PBS pH 6.5 + HF (1 mg/mL)
  Induction Time: 43.75 ± 1.34 min
[8]; PA-824 80 μg/mL, PBS pH 6.5, HPMCAS-HF 10 μg/mL
  Induction Time: about 77.5 minutes
[9]; aqueous buffer, in PBS
  solubility: ~160 µg/mL (≈ 445 µM)
[9]; in FaSSIF V1
  solubility: ~300 µg/mL (≈ 835 µM)
[10]
  activity against a broad range of Gram-positive and Gram-negative bacteria: no significant activity
Cytochrome P450
  cytochrome P450 interactions: no significant cytochrome P450 interactions
